# Laboratory results published in ChEMBL document CHEMBL3045129, “Synthesis and anti-inflammatory activity of some pyrazole derivatives” (Med Chem Res, 2012).
# Columns and labels:
# [1] = system: Rattus norvegicus; assay: Anti-inflammatory activity inRattus norvegicus albino (rat) assessed as inhibition of carrageenan-induced paw edema at 100 mg/kg, po administered 3 hr prior challenge measured after 1 hr post challenge; assay type: functional
# [2] = system: Rattus norvegicus; assay: Anti-inflammatory activity inRattus norvegicus albino (rat) assessed as inhibition of carrageenan-induced paw edema at 100 mg/kg, po administered 2 hr prior challenge measured after 1 hr post challenge; assay type: functional
# [3] = system: Rattus norvegicus; assay: Anti-inflammatory activity inRattus norvegicus albino (rat) assessed as inhibition of carrageenan-induced paw edema at 100 mg/kg, po administered 1 hr prior challenge measured after 1 hr post challenge; assay type: functional
# [4] = system: Rattus norvegicus; assay: Toxicity inRattus norvegicus albino (rat) assessed as ulcerogenicity at 100 mg/kg, po measured after 1 hr; assay type: organism-based; parameters: dose 100 mg/kg, route oral; conditions: in vivo
compound,measurement,setting,value
Cc1cc(-c2ccc(Cl)cc2)n(Cc2n[nH]c(=S)o2)n1,inhibition in vivo at 100 mg/kg,[1],39.2%
same,inhibition in vivo at 100 mg/kg,[2],31.2%
same,inhibition in vivo at 100 mg/kg,[3],15.4%
Cc1cc(-c2ccccc2)n(Cc2n[nH]c(=S)o2)n1,inhibition in vivo at 100 mg/kg,[1],48.7%
same,inhibition in vivo at 100 mg/kg,[2],34.2%
same,inhibition in vivo at 100 mg/kg,[3],26.3%
CCCNc1nnc(Cn2nc(C)cc2-c2ccccc2)s1,inhibition in vivo at 100 mg/kg,[1],54.1%
same,inhibition in vivo at 100 mg/kg,[2],42.2%
same,inhibition in vivo at 100 mg/kg,[3],26.9%
Cc1cc(-c2ccc(Cl)cc2)n(Cc2nnc(Nc3ccc([N+](=O)[O-])cc3)s2)n1,inhibition in vivo at 100 mg/kg,[1],61.1%
same,inhibition in vivo at 100 mg/kg,[2],45%
same,inhibition in vivo at 100 mg/kg,[3],32.8%
Cc1cccc(NC(=S)NNC(=O)Cn2nc(C)cc2C)c1,inhibition in vivo at 100 mg/kg,[1],40.8%
same,inhibition in vivo at 100 mg/kg,[2],22.9%
same,inhibition in vivo at 100 mg/kg,[3],12.3%
Cc1cc(-c2ccc(Cl)cc2)n(-c2ccc(S(N)(=O)=O)cc2)n1,UI,[4],5.2
same,inhibition in vivo at 100 mg/kg,[1],62.5%
same,inhibition in vivo at 100 mg/kg,[2],49.8%
same,inhibition in vivo at 100 mg/kg,[3],37.2%
Cc1cc(-c2ccc(Cl)cc2)n(-c2ccc(S(=O)(=O)Nc3nccs3)cc2)n1,inhibition in vivo at 100 mg/kg,[1],62%
same,inhibition in vivo at 100 mg/kg,[2],44.3%
same,inhibition in vivo at 100 mg/kg,[3],34.1%
Cc1cc(C)n(CC(=O)NNC(=S)Nc2ccc([N+](=O)[O-])cc2)n1,UI,[4],18.6
same,inhibition in vivo at 100 mg/kg,[1],62.7%
same,inhibition in vivo at 100 mg/kg,[2],44.4%
same,inhibition in vivo at 100 mg/kg,[3],36.1%
Cc1cc(C)n(Cc2n[nH]c(=S)o2)n1,inhibition in vivo at 100 mg/kg,[1],34.9%
same,inhibition in vivo at 100 mg/kg,[2],21.5%
same,inhibition in vivo at 100 mg/kg,[3],14.4%
COc1ccc(NC(=S)NNC(=O)Cn2nc(C)cc2C)cc1,inhibition in vivo at 100 mg/kg,[1],46.4%
same,inhibition in vivo at 100 mg/kg,[2],41.4%
same,inhibition in vivo at 100 mg/kg,[3],30.3%
COc1ccc2c(c1)c(CC(=O)O)c(C)n2C(=O)c1ccc(Cl)cc1 [INDOMETHACIN],UI,[4],20.4
same,inhibition in vivo at 100 mg/kg,[1],60.8%
same,inhibition in vivo at 100 mg/kg,[2],40.1%
same,inhibition in vivo at 100 mg/kg,[3],31.5%
Cc1ccc(-c2cc(C(F)(F)F)nn2-c2ccc(S(N)(=O)=O)cc2)cc1 [CELECOXIB],inhibition in vivo at 100 mg/kg,[1],63.8%
same,inhibition in vivo at 100 mg/kg,[2],45.8%
same,inhibition in vivo at 100 mg/kg,[3],31.4%
Cc1cccc(-n2c(Cn3nc(C)cc3C)n[nH]c2=S)c1,inhibition in vivo at 100 mg/kg,[1],33.4%
same,inhibition in vivo at 100 mg/kg,[2],22.7%
same,inhibition in vivo at 100 mg/kg,[3],13.2%
Cc1cc(C)n(Cc2nnc(Nc3ccc([N+](=O)[O-])cc3)s2)n1,UI,[4],15.6
same,inhibition in vivo at 100 mg/kg,[1],64.9%
same,inhibition in vivo at 100 mg/kg,[2],50%
same,inhibition in vivo at 100 mg/kg,[3],37.5%
Cc1cc(C)n(Cc2n[nH]c(=S)n2-c2ccc([N+](=O)[O-])cc2)n1,inhibition in vivo at 100 mg/kg,[1],36.4%
same,inhibition in vivo at 100 mg/kg,[2],27.1%
same,inhibition in vivo at 100 mg/kg,[3],16.6%
